Results as given in US20170049793A1, “MOLECULAR ACTIVATORS OF THE WNT/BETA-CATENIN PATHWAY” (THE GENERAL HOSPITAL CORPORATION, priority 2009, published 2017).

What was measured:
[1] = system: Axin2 expression (Wnt/β-catenin pathway) in B16 cells; test: Quantitative PCR of the Wnt/β-catenin target gene Axin2 in B16 cells; assay type: cell-based, murine; details: 1 μM BIO vs control cells
Method: Cells were cultured for approximately 72 hours until they reached 80-90% confluency. RNA was purified using the RNeasy kit using the manufacturer's protocol (Qiagen; Maryland, Md.). cDNA was synthesized using Superscript Reverse Transcriptase (Invitrogen; Grand Island, N.Y.). Light Cycler FastStart DNA Master SYBR Green1 (Roche; Mannheim, Germany) was used for real-time PCR as previously described (Major et al., Science 316:1043 (2007), which is hereby incorporated by reference in its entirety). Quantitative PCR results presented in the manuscript are representative of experiments performed on a minimum of three biologic replicates.

[2] = Suitability for murine therapeutic trials (toxicity, serum levels); assay type: in vivo, mice; details: precluding murine therapeutic trials
[3] = system: B16 melanoma cells; test: MTT proliferation assay in B16 melanoma cells; assay type: cell-based, murine; details: 1 μM BIO vs control cells
[4] = system: nuclear β-catenin (Wnt/β-catenin pathway) in B16 cells; test: Immunofluorescent staining of β-catenin in B16 cells; assay type: cell-based, murine; details: 1 μM BIO vs DMSO control
Method: A polyclonal rabbit anti-β-catenin antibody was used for detection of 1β-catenin (1:1000 dilution for immunoblot, 1:200 dilution for immunohistochemistry). Cells were grown on 18 mm glass coverslips, for 48-72 hours, fixed using 4% paraformaldehyde, permeabilized using 0.25% Triton X-100, and then blocked with 10% goat serum. Goat anti-rabbit Alexa Fluor-568 antibody (Molecular Probes; Eugene, Oreg.) was diluted 1:1000. Cells were counterstained for nucleic acid with DAPI (Molecular Probes; Eugene, Oreg.). Paraffin-embedded nevus sections were stained using an antibody dilution of 1:200. Cellular lysates were obtained by lysing cells on plate with a 0.1% NP-40 based buffer and analyzed by NuPage 4-12% gradient gels (Invitrogen; Grand Island, N.Y.). The WNTSA antibody was obtained from Cell Signaling Technologies (Danvers, Mass.).

With `O=C1Nc2cc(Br)ccc2/C1=C1/Nc2ccccc2/C1=N\O` [BIO, 6-bromoindirubin-3′-oxime] the “Axin2 levels (quantitative PCR)” value [1] was “increased Axing levels”, the toxicity [2] was “obstacles relating to both toxicity” and the “proliferation (MTT assay)” value [3] was “decreased proliferation”. The “nuclear β-catenin (immunofluorescent staining)” value [4] was “increased nuclear β-catenin”.
